# Read-outs that look alike come from different tables or passages of the source.
# Target: GSK-3β (Homo sapiens, UniProt P49841)
# Test: Assay for GSK-3β inhibiting activity (32P-ATP, phospho-CREB peptide substrate, filter paper, CPM)
# Format: biochemical
# Procedure: Assay for GSK-3β inhibiting activity
# First, PCR (polymerase chain reaction) was carried out using human DNA as a template as well as primers which were designed to correspond to the 3′- and 5′ ends of the polynucleotide coding human GSK-3β gene (Genbank Accession No.: L33801). The BamH1/XhoI fragment of the amplified PCR product thus obtained was inserted into the pGex vector between the BamH1 and XhoI sites, and the vector obtained was transformed into E. coli BL21(DE3). The transformed cells thus obtained was incubated in […] (1% Bacto-trypton, 0.5% yeast extract, 1% NaCl) containing ampicillin ([…]) until the optical density at 600 nm reached about 0.5. The cultured mixture was cooled to 18° C. and isopropyl β-D-thiogalacto-pyranoside (IPTG) was added thereto to a final concentration of 0.5 mM. After 16 hours, the resultant was centrifuged at 10,000×g for 10 min, the collected cells were suspended in a buffer solution (30 mM Tris-HCl (pH 7.5), 100 mM NaCl, 5% glycerol, 2 mM DTT) and the cells were disrupted using Sonic Dismembrator (Fisher, U.S.A.) in a ice bath. The resulting solution was centrifuged at 16,000 rpm for 30 minutes. […] The purified GSK-3β protein was diluted in a buffer solution (20 mM HEPES (pH 7.5), 5% glycerol, 2 mM DTT) to a final concentration of 50 mM NaCl and the resulting solution was subjected to mono S column chromatography (eluent: linear gradient from 0M to 1M NaCl buffer) using mono S column (Pharmacia Biotech, U.S.A.) equilibrated in the same buffer solution to obtain GSK-3β protein.
# The reaction was stopped by adding 5 μl of 5% phosphoric acid to 25 μl of the resulting solution. The resulting mixture was centrifuged at 15,000 rpm for 10 min, 20 μl of the supernatant was added dropwise to Whatman p81 filter paper, and then, the resulting filter paper was washed with 0.5% phosphate buffer for 10 min. The filter paper was further washed 3 times and the enzymatic activity was determined by examining the extent of phospho-CREB peptide phosphorylation which is represented by the unit of count per minute (CPM), measured with a β-counter (Packard, USA).
# The GSK-3β inhibiting activity was then calculated in accordance with the following equation:
# [formula] wherein the blank represents a value obtained without the use of the enzyme and the compound of the present invention, and the control, in the absence of the compound of the present invention.
# [1] = GSK-3β inhibiting activity, 100 nM GSK-3β protein, 100 μM phospho-CREB peptide, 100 μM ATP, 30° C. for 1 hour, read-out: IC50
# Chain of GSK-3β (P49841 whole entry): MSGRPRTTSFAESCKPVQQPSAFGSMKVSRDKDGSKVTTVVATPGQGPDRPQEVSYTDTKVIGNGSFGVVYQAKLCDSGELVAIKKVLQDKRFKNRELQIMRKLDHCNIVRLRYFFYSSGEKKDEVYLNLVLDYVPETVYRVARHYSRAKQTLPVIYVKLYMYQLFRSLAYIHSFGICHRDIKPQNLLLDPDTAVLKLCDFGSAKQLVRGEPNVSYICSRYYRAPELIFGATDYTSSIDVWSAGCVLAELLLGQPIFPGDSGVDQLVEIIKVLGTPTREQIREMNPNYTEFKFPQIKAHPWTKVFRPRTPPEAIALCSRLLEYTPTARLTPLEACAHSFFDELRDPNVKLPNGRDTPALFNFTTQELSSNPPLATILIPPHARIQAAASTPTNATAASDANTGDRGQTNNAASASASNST
IC50 [1] [µM],IC50 (IC50 (μM)) [µM],Structure (SMILES)
> 1,,O=C(Nc1ccc(CCNS(=O)(=O)c2cccs2)cc1)c1ccc(O)c2[nH]c(-c3ccc(Cl)cc3)nc12 [Compound 19]
> 1,,Nc1ccc(CNC(=O)c2ccc(O)c3[nH]c(-c4ccc(Cl)cc4)nc23)cc1 [Compound 54]
> 1,,NCCCNC(=O)c1ccc(O)c2[nH]c(-c3ccccc3)nc12 [Compound 163]
> 5,,NCCNC(=O)c1ccc(O)c2[nH]c(-c3ccc(Cl)cc3Cl)nc12 [Compound 103]
> 1,,O=C(NCCc1ccccn1)c1ccc(O)c2[nH]c(-c3ccc(Cl)cc3Cl)nc12 [Compound 111]
> 1,,CCCCNC(=O)c1ccc(O)c2[nH]c(-c3ccc(Cl)cc3)nc12 [Compound 168]
0.003,,O=C(NCCCn1cnc(Cl)c1Cl)c1ccc(O)c2[nH]c(-c3ccc(F)cc3F)nc12 [Compound 197]
> 5,,"O=C(NCCCn1cnc(Cl)c1Cl)c1ccc(O)c2[nH]c(-c3ccc(NCCN4CCOCC4)cc3)nc12 [Compound 204, 7-hydroxy-2-[4-(2-morpholin-4-yl-ethylamino)-phenyl]-1H-benzoimidazole-4-carboxylic acid [3-(4,5-dichloro-imidazol-1-yl)-propyl]-amide]"
0.09,,CS(=O)(=O)Nc1ccc(CCNC(=O)c2ccc(O)c3[nH]c(-c4ccc(F)c(Cl)c4)nc23)cc1 [Compound 161]
0.002,,Cc1nccn1CCCNC(=O)c1ccc(O)c2[nH]c(-c3ccc(F)cc3)nc12 [Compound 188]
0.24,,CS(=O)(=O)Nc1ccc(NCCNC(=O)c2ccc(O)c3[nH]c(-c4ccc(F)cc4Cl)nc23)nc1 [Compound 152]
0.04,,O=C(NCCCn1ccnc1)c1ccc(O)c2[nH]c(-c3ccc(Cl)cc3Cl)nc12 [Compound 178]
,0.002,CCS(=O)(=O)Nc1ccc(CCNC(=O)c2ccc(O)c3nc(-c4ccc(F)cc4Cl)[nH]c23)cc1 [Compound 145]
0.6,,Nc1ccc(CNC(=O)c2ccc(O)c3[nH]c(-c4ccccc4)nc23)cc1 [Compound 50]
0.003,,CCS(=O)(=O)Nc1ccc(CCNC(=O)c2ccc(O)c3[nH]c(-c4ccc(F)cc4)nc23)cc1 [Compound 116]
0.24,,CS(=O)(=O)NCCc1ccc(NC(=O)c2ccc(O)c3[nH]c(-c4ccc(Cl)cc4)nc23)cc1 [Compound 17]
> 1,,CN(C)c1ccc(CCNC(=O)c2ccc(O)c3[nH]c(-c4ccc(Cl)cc4)nc23)cc1 [Compound 93]
0.33,,CCN(CC)CC(=O)Nc1ccc(CCNC(=O)c2ccc(O)c3[nH]c(-c4ccc(F)cc4)nc23)cc1 [Compound 130]
0.2,,O=C(Nc1ccc(CCNS(=O)(=O)c2cccs2)cc1)c1ccc(O)c2[nH]c(-c3ccccc3)nc12 [Compound 12]
0.1,,Cc1cn(CCCNC(=O)c2ccc(O)c3[nH]c(-c4ccc(Cl)cc4)nc23)cn1 [Compound 173]
0.3,,O=C(NC1CCC(O)CC1)c1ccc(O)c2[nH]c(-c3ccccc3)nc12 (centres unmarked) [Compound 5]
0.026,,Cc1ccc(S(=O)(=O)Nc2ccc(CCNC(=O)c3ccc(O)c4nc(-c5ccc(F)cc5)[nH]c34)cc2)cc1 [Compound 115]
> 1,,O=C(NCCCN1CCCC1=O)c1ccc(O)c2[nH]c(-c3ccc(Cl)cc3)nc12 [Compound 169]
> 1,,O=C(NCCc1cccc(Br)c1)c1ccc(O)c2[nH]c(-c3ccc(Cl)cc3)nc12 [Compound 98]
4.1,,CCS(=O)(=O)NCCc1ccc(NC(=O)c2ccc(O)c3[nH]c(-c4ccc(Cl)cc4)nc23)cc1 [Compound 20]
0.043,,Cc1ccc(S(=O)(=O)Nc2ccc(CCNC(=O)c3ccc(O)c4[nH]c(-c5ccc(F)cc5F)nc34)cc2)cc1 [Compound 141]
0.07,,Cc1nccn1CCCNC(=O)c1ccc(O)c2[nH]c(-c3ccc(F)cc3Cl)nc12 [Compound 201]

IC50 [1] [µM],IC50 (IC50 (μM)) [µM],Structure (SMILES)
> 1,,Cc1ccc(S(=O)(=O)NCCc2ccc(NC(=O)c3ccc(O)c4[nH]c(-c5ccc(F)c(Cl)c5)nc34)cc2)cc1 [Compound 43]
0.004,,O=C(NCCCn1cnc(Cl)c1Cl)c1ccc(O)c2[nH]c(-c3ccc(F)cc3F)nc12 [Compound 194]
> 1,,O=C(Nc1ccccc1)c1ccc(O)c2[nH]c(-c3ccc(Cl)cc3)nc12 [Compound 14]
0.05,,Cc1ccc(S(=O)(=O)Nc2ccc(NCCNC(=O)c3ccc(O)c4[nH]c(-c5ccc(F)cc5Cl)nc34)nc2)cc1 [Compound 153]
> 1,,Cc1ccc(S(=O)(=O)NCCc2ccc(NC(=O)c3ccc(O)c4[nH]c(-c5ccc(F)cc5)nc34)cc2)cc1 [Compound 34]
0.07,,Cc1ccc(S(=O)(=O)Nc2ccc(NCCNC(=O)c3ccc(O)c4[nH]c(-c5ccc(F)cc5)nc34)nc2)cc1 [Compound 124]
> 1,,O=C(Nc1ccc(CCO)cc1)c1ccc(O)c2[nH]c(-c3ccc(Cl)cc3Cl)nc12 [Compound 27]
0.01,,Cc1cn(CCCNC(=O)c2ccc(O)c3[nH]c(-c4ccc(F)cc4)nc23)cn1 [Compound 187]
0.23,,COc1ccc(CCNC(=O)c2ccc(O)c3[nH]c(-c4ccc(Cl)cc4Cl)nc23)cc1O [Compound 102]
0.15,,CCN1CCN(CC(=O)Nc2ccc(CCNC(=O)c3ccc(O)c4[nH]c(-c5ccc(F)cc5)nc34)cc2)CC1 [Compound 128]
> 1,,CCS(=O)(=O)NCCc1ccc(NC(=O)c2ccc(O)c3[nH]c(-c4ccc(F)c(Cl)c4)nc23)cc1 [Compound 44]
> 1,,NCCNC(=O)c1ccc(O)c2[nH]c(-c3ccccc3)nc12 [Compound 61]
0.02,,O=C(NCCCn1ccnc1)c1ccc(O)c2[nH]c(-c3ccc(F)cc3Cl)nc12 [Compound 198]
> 1,,O=C(NCCc1ccccc1)c1ccc(O)c2[nH]c(-c3ccc(Cl)cc3)nc12 [Compound 71]
0.05,,Cc1ccc(S(=O)(=O)Nc2ccc(CCNC(=O)c3ccc(O)c4[nH]c(-c5ccc(Cl)cc5)nc34)cc2)cc1 [Compound 76]
0.19,,O=C(NCCCn1ccnc1)c1ccc(O)c2[nH]c(-c3ccc(Cl)cc3)nc12 [Compound 170]
> 1,,CS(=O)(=O)Nc1ccc(CCNC(=O)c2ccc(O)c3nc(-c4ccc(F)cc4F)[nH]c23)cc1 [Compound 140]
> 1,,Nc1ccc(CCNC(=O)c2ccc(O)c3[nH]c(-c4ccc(Cl)cc4)nc23)cc1 [Compound 73]
0.14,,CCCCC(=O)Nc1ccc(CCNC(=O)c2ccc(O)c3[nH]c(-c4ccc(F)cc4Cl)nc23)cc1 [Compound 149]
0.05,,CS(=O)(=O)Nc1ccc(NCCNC(=O)c2ccc(O)c3[nH]c(-c4ccc(F)cc4)nc23)nc1 [Compound 123]
0.02,,Cc1cn(CCCNC(=O)c2ccc(O)c3[nH]c(-c4ccc(F)cc4F)nc23)cn1 [Compound 193]
0.28,,O=C(NCCNc1ccc([N+](=O)[O-])cn1)c1ccc(O)c2[nH]c(-c3ccc(Cl)cc3Cl)nc12 [Compound 110]
0.03,,O=C(NCCc1ccc(O)cc1)c1ccc(O)c2[nH]c(-c3ccc(F)cc3)nc12 [Compound 121]
0.04,,O=C(NCCCn1cnc(Cl)c1Cl)c1ccc(O)c2[nH]c(-c3ccc(Cl)cc3)nc12 [Compound 174]
> 5,,O=C(c1ccc(O)c2[nH]c(-c3ccc(Cl)cc3Cl)nc12)N1CCCCC1 [Compound 48]
> 1,,O=C(NCCc1c[nH]cn1)c1ccc(O)c2[nH]c(-c3ccc(Cl)cc3)nc12 [Compound 83]

# From patent US7179832B2, “Glycogen synthase kinase 3β inhibitor, composition and process for the preparation thereof” (Crystalgenomics, Inc., priority 2003, dated 2007)
